Values quoted from earlier work, collected in patent publication US20050249757A1, “Pharmaceutical cream formulations” (Glenmark Pharmaceuticals Limited, priority 2004, published 2005).

What was measured:
human subjects = conditions: 50 human subjects, total of 15 applications; manufacturer's brochure
rabbit skin = conditions: described as practically nonirritating
macrophilin-12 (FKBP-12) = macrophilin-12 (FKBP-12) (Homo sapiens, UniProt P62942)
human T cells = conditions: Th1-type and Th2-type cytokines

macrophilin-12 (FKBP-12), sequence (P62942 whole entry): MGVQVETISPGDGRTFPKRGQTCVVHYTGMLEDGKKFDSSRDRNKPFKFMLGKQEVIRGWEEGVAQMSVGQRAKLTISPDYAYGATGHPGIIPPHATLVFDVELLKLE

SMILES	Dermal irritation and sensitization in repeated insult patch test (human subjects)	PII (skin irritation) (rabbit skin)	Binding affinity to macrophilin-12 (FKBP-12) (macrophilin-12 (FKBP-12))	Concentration inhibiting Interleukin-2, interferon gamma, Interleukin-4 and Interleukin-10 cytokine synthesis (human T cells)
CN1CCCC1=O [Pharmasolve, N-methyl-2-pyrrolidone]	neither a primary dermal irritant nor a sensitizer	0.5	–	–
CC[C@@H]1/C=C(\C)C[C@H](C)C[C@H](OC)[C@H]2O[C@@](O)(C(=O)C(=O)N3CCCC[C@H]3C(=O)O[C@H](/C(C)=C/[C@@H]3CC[C@H](Cl)[C@H](OC)C3)[C@H](C)[C@@H](O)CC1=O)[C@H](C)C[C@@H]2OC [pimecrolimus, (1R,9S,12S,13R,14S,17R,18E,21 S,23S,24R,25S,27R)-12-[(1E)-2-{(1R,3R,4S)-4-chloro-3-methoxycyclohexyl}-1-methylvinyl]-17-ethyl-1,14-dihydroxy-23,25-dimethoxy-13,19,21,27-tetramethyl-11,28-dioxa-4-aza-tricyclo[22.3.1.04,9]octacos-18-ene-2,3,10,16-tetraone]	–	–	high affinity	nanomolar concentrations
